Results from patent publication US20230165865A1, “HETEROARYLDIHYDROPYRIMIDINE DERIVATIVES AND METHODS OF TREATING HEPATITIS B INFECTIONS” (Janssen Pharmaceutica NV, priority 2018, published 2023).
Like-named read-outs stand apart in the source and are kept apart here.

Assays:
[1] = test system: HBV; assay: Anti-viral assay in HepG2.2.15 cells: anti-HBV activity, HBV DNA in culture medium by qPCR; assay type: cell-based
Method: (§1) HepG2.2.15 (the HepG2.2.15 cell line can be produced by transfection of the HepG2 cell line as described in Sells, Chen, and Acs 1987 (Proc. Natl. Acad. Sci. USA 84: 1005-1009), and the HepG2 cell line is available from ATCC® under number HB-8065™)
(§2) HepG2.2.15 cells were plated into 96-well plate in 2% FBS culture medium at the density of 40,000 cells/well and 5,000cells/well for HBV inhibitory activity and cytotoxicity determination, respectively. After incubation at 37° C., 5% CO2 overnight, cells were treated with medium containing compounds for 6 days with medium and compounds refreshed after 3 days of treatment. Each compound was tested in a 1:3 serial dilutions at 8 different concentrations in triplicate. The highest concentration of the compounds was 10 uM or 1 uM for anti-HBV activity assay and 100 uM for cytotoxicity determination.
The change of HBV DNA level induced by the compounds was assessed by quantitative real-time polymerase chain reaction (qPCR). Briefly, the HBV DNA in the culture medium was extracted using QIAamp 96 DNA Blood Kit according to the manual and then quantified by real-time PCR assay using the primers and probe in the table 1 below.
(§3) EC50 and CC50 values are calculated by the […] PRISM software.

[2] = Cytotoxicity determination in HepG2.2.15 cells (CCK-8 assay); assay type: cell-based; details: human, 6 days treatment, CCK-8, highest concentration 100 uM
Method: as §1, §2
Cell viability was determined by CCK-8 assay. After 6 days of compounds treatment, 20 μl CCK-8 reagents were added to each well of cytotoxicity assay plates. Cell plates were incubated at 37° C., 5% CO2 for 2.5 h. The absorbance at 450 nm wavelength and the absorbance at 630 nm wavelength as reference was measured.
as §3

[3] = Hepatitis B virus, HepG2.2.15, 144 h, HepG2.2.15 cells, 6 days treatment, HBV DNA by qPCR, read-out: EC50
[4] = HepG2.2.15 cells, 6 days treatment, HBV DNA by qPCR, read-out: EC50

Row | Compound | EC50 [1, 3] [µM] | CC50 at 6 days [2] [µM] | EC50 [1, 4] [µM] | EC50 ([1]; Hepatitis B virus, HepG2.2.15, 144 h) [µM]
1 | [2H][C@@]1(c2cccc(F)c2C)N=C(c2nccs2)NC(CN2CCN3C(=S)N(CC(C)(C)C(=O)O)C[C@@H]3C2)=C1C(=O)OCC (single isomer, unassigned) [Compound 36B, 3-(7-((6-Deutero-5-(ethoxycarbonyl)-6-(3-fluoro-2-methylphenyl)-2-(thiazol-2-yl)-3,6-dihydropyrimidin-4-yl)methyl)-3-thioxohexahydroimidazo[1,5-a]pyrazin-2(3H)-yl)-2,2-dimethylpropanoic acid] | 0.0026 | 23 |  | 
2 | COC(=O)C1=C(CN2CCN3C(=S)N(CC(C)(C)C(=O)O)CC3C2)NC(c2nccs2)=NC1c1cccc(F)c1C (single isomer, unassigned) [Compound 10B, 3-(-7-((6-(3-Fluoro-2-methylphenyl)-5-(methoxycarbonyl)-2-(thiazol-2-yl)-3,6-dihydropyrimidin-4-yl)methyl)-3-thioxohexahydroimidazo[1,5-a]pyrazin-2(3H)-yl)-2,2-dimethylpropanoic acid] | 0.0029 | 23.2 |  | 
3 | CCOC(=O)C1=C(CN2CCN3C(=S)N(CC(C)(C)C(=O)O)C[C@@H]3C2)NC(c2nccs2)=N[C@H]1c1ccc(F)cc1Cl (single isomer, unassigned) [Compound 21A, 3-(7-((6-(2-chloro-4-fluorophenyl)-5-(ethoxycarbonyl)-2-(thiazol-2-yl)-3,6-dihydropyrimidin-4-yl)methyl)-3-thioxohexahydroimidazo[1,5-a]pyrazin-2(3H)-yl)-2,2-dimethylpropanoic acid] | 0.006 | 15.2 |  | 
4 | CCOC(=O)C1=C(CN2CCN3C(=S)N(CC(C)C(=O)O)C[C@@H]3C2)NC(c2nccs2)=N[C@H]1c1cccc(F)c1C (single isomer, unassigned) [Compound 27A] | 0.0048 | 23.6 |  | 
5 | CCOC(=O)C1=C(CN2CCN3C(=S)N(C)C[C@@H]3[C@H]2C(=O)O)NC(c2nccs2)=N[C@H]1c1cccc(F)c1C (single isomer, unassigned) [Compound 35A] |  | 77 | 0.0479 | 
6 | COC(=O)C1=C(CN2CCN3C(=S)N(CC(C)(C)C(=O)O)C[C@@H]3C2)NC(c2nccs2)=N[C@H]1c1cccc(F)c1Cl (single isomer, unassigned) [Compound 20A, 3-(7-((6-(2-chloro-3-fluorophenyl)-5-(methoxycarbonyl)-2-(thiazol-2-yl)-3,6-dihydropyrimidin-4-yl)methyl)-3-thioxohexahydroimidazo[1,5-a]pyrazin-2(3H)-yl)-2,2-dimethylpropanoic acid] | 0.0035 | 16.4 |  | 
7 | CCOC(=O)C1=C(CN2CCN3C(=S)N(CC(C)(C)C(=O)O)C[C@@H]3C2)NC(c2ncoc2C)=N[C@H]1c1ccc(F)cc1Cl (single isomer, unassigned) [Compound 33A, 3-(7-((6-(2-Chloro-4-fluorophenyl)-5-(ethoxycarbonyl)-2-(5-methyloxazol-4-yl)-3,6-dihydropyrimidin-4-yl)methyl)-3-thioxohexahydroimidazo[1,5-a]pyrazin-2(3H)-yl)-2,2-dimethylpropanoic acid] | 0.012 | 37.8 |  | 
8 | CCOC(=O)C1=C(CN2CCN3C(=S)N(CC(C)(C)C(=O)O)C[C@@H]3C2)NC(c2nccs2)=N[C@H]1c1ccc(C)cc1F (single isomer, unassigned) [Compound 25A, 3-(7-((5-(Ethoxycarbonyl)-6-(2-fluoro-4-methylphenyl)-2-(thiazol-2-yl)-3,6-dihydropyrimidin-4-yl)methyl)-3-thioxohexahydroimidazo[1,5-a]pyrazin-2(3H)-yl)-2,2-dimethylpropanoic acid] | 0.0916 | 31 |  | 
9 | CCOC(=O)C1=C(CN2CCN3C(=S)N(C)C[C@@H]3[C@H]2C(=O)O)NC(c2nccs2)=N[C@H]1c1cccc(F)c1Cl (single isomer, unassigned) [Compound 19B, (trans)-7-((6-(2-chloro-3-fluorophenyl)-5-(ethoxycarbonyl)-2-(thiazol-2-yl)-3,6-dihydropyrimidin-4-yl)methyl)-2-methyl-3-thioxooctahydro-imidazo[1,5-a]pyrazine-8-carboxylic acid] | 0.0018 | 51.2 |  | 
10 | COC(=O)C1=C(CN2CCN3C(=S)N(CC(C)(C)C(=O)O)CC3C2)NC(c2nccs2)=NC1c1ccc(F)c(F)c1C (single isomer, unassigned) [Compound 12B, 3-(7-((6-(3,4-Difluoro-2-methylphenyl)-5-(methoxycarbonyl)-2-(thiazol-2-yl)-3,6-dihydropyrimidin-4-yl)methyl)-3-thioxohexahydroimidazo[1,5-a]pyrazin-2(3H)-yl)-2,2-dimethylpropanoic acid] | 0.002 | 14.5 |  | 
11 | COC(=O)C1=C(CN2CCN3C(=S)N(CC(C)(C)C(=O)O)C[C@@H]3C2)NC(c2nccs2)=N[C@@H]1c1ccc(F)cc1Br (single isomer, unassigned) [Compound 16A, 3-(7-((6-(2-Bromo-4-fluorophenyl)-5-(methoxycarbonyl)-2-(thiazol-2-yl)-3,6-dihydropyrimidin-4-yl)methyl)-3-thioxohexahydroimidazo[1,5-a]pyrazin-2(3H)-yl)-2,2-dimethylpropanoic acid] | 0.0045 | 15.3 |  | 
12 | CCOC(=O)C1=C(CN2CCN3C(=S)N(C(C)(C)CC(=O)O)CC3C2)NC(c2nccs2)=N[C@H]1c1cccc(F)c1C (single isomer, unassigned) [Compound 30A] | 0.005 | 8.6 |  | 
13 | CCOC(=O)C1=C(CN2CCN3C(=NC(C)=O)N(CC(C)(C)C(=O)O)CC3C2)NC(c2nccs2)=N[C@H]1c1cccc(F)c1C (stereo partly drawn) [Compound 8, (S)-3-(3-(Acetylimino)-7-((5-(ethoxycarbonyl)-6-(3-fluoro-2-methylphenyl)-2-(thiazol-2-yl)-3,6-dihydropyrimidin-4-yl)methyl)hexahydroimidazo[1,5-a]pyrazin-2(3H)-yl)-2,2-dimethylpropanoic acid] |  | > 100 |  | 0.79
14 | CCOC(=O)C1=C(CN2CCN3C(=S)N([C@H]4CC[C@@H](C(=O)O)C4)CC3C2)NC(c2nccs2)=N[C@H]1c1cccc(F)c1C (single isomer, unassigned) [Compound 24C] |  | 11.6 | 0.0014 | 
15 | CCOC(=O)C1=C(CN2CCN3C(=NC#N)N(CC(C)(C)C(=O)O)CC3C2)NC(c2nccs2)=N[C@H]1c1cccc(F)c1C (stereo partly drawn) [Compound 2, 3-(3-(cyanoimino)-7-(((S)-5-(ethoxycarbonyl)-6-(3-fluoro-2-methylphenyl)-2-(thiazol-2-yl)-3,6-dihydropyrimidin-4-yl)methyl)hexahydroimidazo[1,5-a]pyrazin-2(3H)-yl)-2,2-dimethylpropanoic acid] | 0.049 | 55.4 |  | 
16 | CCOC(=O)C1=C(CN2CCN3C(=S)N(CC4(C(=O)O)CC4)C[C@@H]3C2)NC(c2nccs2)=N[C@H]1c1cccc(F)c1Cl (single isomer, unassigned) [Compound 18B, 1-((7-((6-(2-chloro-3-fluorophenyl)-5-(ethoxycarbonyl)-2-(thiazol-2-yl)-3,6-dihydropyrimidin-4-yl)methyl)-3-thioxohexahydroimidazo[1,5-a]pyrazin-2(3H)-yl)methyl)cyclopropane-1-carboxylic acid] | 0.0015 | 13 |  | 
17 | CCOC(=O)C1=C(CN2CCN3C(=S)N(CCC(C)(C)C(=O)O)CC3C2)NC(c2nccs2)=N[C@H]1c1cccc(F)c1C (stereo partly drawn) [Compound 28, 4-(7-(((S)-5-(ethoxycarbonyl)-6-(3-fluoro-2-methylphenyl)-2-(thiazol-2-yl)-3,6-dihydropyrimidin-4-yl)methyl)-3-thioxohexahydroimidazo[1,5-a]pyrazin-2(3H)-yl)-2,2-dimethylbutanoic acid] | 0.0058 | 10.9 |  | 
18 | CCOC(=O)C1=C(CN2CCN3C(=S)N(C[C@@H](C)C(=O)O)C[C@@H]3C2)NC(c2ncoc2C)=NC1c1cccc(F)c1C (single isomer, unassigned) [Compound 32A, 3-(7-((5-(Ethoxycarbonyl)-6-(3-fluoro-2-methylphenyl)-2-(5-methyloxazol-4-yl)-3,6-dihydropyrimidin-4-yl)methyl)-3-thioxohexahydroimidazo[1,5-a]pyrazin-2(3H)-yl)-2-methylpropanoic acid] | 0.0249 | 41 |  | 
19 | CCOC(=O)C1=C(CN2CCN3C(=S)N([C@@H]4CC[C@H](C(=O)O)C4)CC3C2)NC(c2nccs2)=N[C@H]1c1cccc(F)c1C (single isomer, unassigned) [Compound 24A] |  | 15.5 | 0.0391 | 
20 | CCOC(=O)C1=C(CN2CCN3C(=S)N(CC(C)(C)C(=O)O)CC[C@H]3C2)NC(c2nccs2)=N[C@H]1c1cccc(F)c1C [Compound 6, 3-((S)-2-(((S)-5-(ethoxycarbonyl)-6-(3-fluoro-2-methylphenyl)-2-(thiazol-2-yl)-3,6-dihydropyrimidin-4-yl)methyl)-6-thioxohexahydro-2H-pyrazino[1,2-c]pyrimidin-7(6H)-yl)-2,2-dimethylpropanoic acid] | 0.067 | 20.5 |  | 
